Laboratory results published in PubChem BioAssay AID1963868 (Molecular Pharmacology Branch, DTP, NCI, 2024).

Tested on: KRAS PDC tumor spheroids (HUVEC+MSC), viability
Experiment: Anticancer human tumor 254851-301-R-J1-PDC patient-derived colon carcinoma cell line growth inhibition [KRAS2]
Conditions: for IC50: curve of first compound; for viability, T/C: stronger effect = lower value
Summary of the method: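 Combination screen of spheroid viability in tumor-cell co-cultures with endothelial (HUVEC) and mesenchymal stem cell stroma. Each agent was tested in half-log dilutions, topping at clinical Cmax or at 10 microM without a known Cmax.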

[1] = second compound 0.0316 µM, first compound 0.0316 µM
[2] = second compound 0.0316 µM, first compound 0.1 µM
[3] = second compound 0.0316 µM, first compound 0.316 µM
[4] = second compound 0.0316 µM, first compound 1 µM
[5] = second compound 0.0316 µM, first compound 3.16 µM
[6] = second compound 0.0316 µM, first compound 10 µM
[7] = second compound 0.1 µM, first compound 0.0316 µM
[8] = second compound 0.1 µM, first compound 0.1 µM
[9] = second compound 0.1 µM, first compound 0.316 µM
[10] = second compound 0.1 µM, first compound 1 µM
[11] = second compound 0.1 µM, first compound 3.16 µM
[12] = second compound 0.1 µM, first compound 10 µM
[13] = second compound 0.316 µM, first compound 0.0316 µM
[14] = second compound 0.316 µM, first compound 0.1 µM
[15] = second compound 0.316 µM, first compound 0.316 µM
[16] = second compound 0.316 µM, first compound 1 µM
[17] = second compound 0.316 µM, first compound 3.16 µM
[18] = second compound 0.316 µM, first compound 10 µM
[19] = second compound 1 µM, first compound 0.0316 µM
[20] = second compound 1 µM, first compound 0.1 µM
[21] = second compound 1 µM, first compound 0.316 µM
[22] = second compound 1 µM, first compound 1 µM
[23] = second compound 1 µM, first compound 3.16 µM
[24] = second compound 1 µM, first compound 10 µM
[25] = second compound 3.16 µM, first compound 0.0316 µM
[26] = second compound 3.16 µM, first compound 0.1 µM
[27] = second compound 3.16 µM, first compound 0.316 µM
[28] = second compound 3.16 µM, first compound 1 µM
[29] = second compound 3.16 µM, first compound 3.16 µM
[30] = second compound 3.16 µM, first compound 10 µM
[31] = second compound 0.0316 µM, first compound 0.01 µM
[32] = second compound 0.1 µM, first compound 0.01 µM
[33] = second compound 0.316 µM, first compound 0.01 µM
[34] = second compound 1 µM, first compound 0.01 µM
[35] = second compound 3.16 µM, first compound 0.01 µM
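Note: spheroids exposed to compounds for seven days before readout.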
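Throughout, for viability, T/C: 100% = DMSO vehicle control luminescence of the spheroids.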

| SMILES | IC50 (second compound 0.0316 µM) | IC50 (second compound 0.1 µM) | IC50 (second compound 0.316 µM) | IC50 (second compound 1 µM) | IC50 (second compound 3.16 µM) | viability, T/C [1] | viability, T/C [2] | viability, T/C [3] | viability, T/C [4] | viability, T/C [7] | viability, T/C [8] | viability, T/C [9] | viability, T/C [10] | viability, T/C [13] | viability, T/C [14] | viability, T/C [15] | viability, T/C [16] | viability, T/C [19] | viability, T/C [20] | viability, T/C [21] | further results |
| --- | --- | --- | --- | --- | --- | --- | --- | --- | --- | --- | --- | --- | --- | --- | --- | --- | --- | --- | --- | --- | --- |
| CC(C)NCC(C(=O)N1CCN(c2ncnc3c2C(C)CC3O)CC1)c1ccc(Cl)cc1 (stereo not given) + C=CC(=O)N1CCN(c2nc(OCC3CCCN3C)nc3c2CCN(c2cccc4cccc(C)c24)C3)CC1CC#N | > 10000 nM | > 10000 nM | > 10000 nM | > 10000 nM | 85.7 nM | 96.9% | 96.1% | 87.4% | 98.2% | 107% | 101% | 99.9% | 77.1% | 97.7% | 93.9% | 92% | 95.9% | 95.4% | 98.5% | 91.6% | viability, T/C [5]: 95.8%; viability, T/C [6]: 94.7%; viability, T/C [11]: 89.9%; viability, T/C [12]: 92.1%; viability, T/C [17]: 88.8%; viability, T/C [18]: 87.6%; viability, T/C [22]: 86.3%; viability, T/C [23]: 97.9%; viability, T/C [24]: 86.2%; viability, T/C [25]: 62%; viability, T/C [26]: 48.2%; viability, T/C [27]: 37%; viability, T/C [28]: 18.1%; viability, T/C [29]: 22.6%; viability, T/C [30]: 8.5% |
| CC1COCCN1c1cc(-c2ccnn2C)c2ccnc(-c3ccn[nH]3)c2n1 (stereo not given) + C=CC(=O)N1CCN(c2nc(OCC3CCCN3C)nc3c2CCN(c2cccc4cccc(C)c24)C3)CC1CC#N | 207 nM | 300 nM | 187 nM | 82.6 nM | 23.8 nM | 88.8% | 62.7% | 40.4% | 32.7% | 95.3% | 64.8% | 50.8% | 34% | 97.1% | 58.8% | 41.9% | 32.3% | 53% | 48.8% | 26.3% | viability, T/C [31]: 122%; viability, T/C [5]: 20.4%; viability, T/C [32]: 101%; viability, T/C [11]: 21.4%; viability, T/C [33]: 105%; viability, T/C [17]: 22.5%; viability, T/C [34]: 59.4%; viability, T/C [22]: 26.5%; viability, T/C [23]: 39.7%; viability, T/C [35]: 57.6%; viability, T/C [25]: 47.1%; viability, T/C [26]: 32.8%; viability, T/C [27]: 23.3%; viability, T/C [28]: 18.8%; viability, T/C [29]: 23.8% |
| CCN1CCN(Cc2ccc(Nc3ncc(F)c(-c4cc(F)c5nc(C)n(C(C)C)c5c4)n3)nc2)CC1 + C=CC(=O)N1CCN(c2nc(OCC3CCCN3C)nc3c2CCN(c2cccc4cccc(C)c24)C3)CC1CC#N | 605 nM | 645 nM | 600 nM | 131 nM | 55.3 nM | 90.8% | 78.1% | 64.4% | 39.2% | 83.3% | 71.5% | 66.2% | 40.6% | 94.2% | 77% | 60.5% | 42% | 57.5% | 49.7% | 44.5% | viability, T/C (second compound 0.0316 µM, first compound 0.00316 µM): 102%; viability, T/C [31]: 97.3%; viability, T/C (second compound 0.1 µM, first compound 0.00316 µM): 98.9%; viability, T/C [32]: 95.5%; viability, T/C (second compound 0.316 µM, first compound 0.00316 µM): 98%; viability, T/C [33]: 87.6%; viability, T/C (second compound 1 µM, first compound 0.00316 µM): 59.5%; viability, T/C [34]: 63.2%; viability, T/C [22]: 34.6%; viability, T/C (second compound 3.16 µM, first compound 0.00316 µM): 65.6%; viability, T/C [35]: 56.8%; viability, T/C [25]: 52.5%; viability, T/C [26]: 43.4%; viability, T/C [27]: 40.1%; viability, T/C [28]: 16% |
| CCNC(=O)CC1N=C(c2ccc(Cl)cc2)c2cc(OC)ccc2-n2c(C)nnc21 (stereo not given) + C=CC(=O)N1CCN(c2nc(OCC3CCCN3C)nc3c2CCN(c2cccc4cccc(C)c24)C3)CC1CC#N | > 10000 nM | > 10000 nM | > 10000 nM | 3640 nM | < 31.6 nM | 98.7% | 90.4% | 88.5% | 92.2% | 102% | 87.8% | 94.6% | 78.9% | 105% | 92.9% | 94.7% | 72.6% | 66.2% | 66.5% | 61.2% | viability, T/C [5]: 80.6%; viability, T/C [6]: 66.9%; viability, T/C [11]: 73.5%; viability, T/C [12]: 68.9%; viability, T/C [17]: 68%; viability, T/C [18]: 73.4%; viability, T/C [22]: 52.9%; viability, T/C [23]: 48.9%; viability, T/C [24]: 47.6%; viability, T/C [25]: 46.9%; viability, T/C [26]: 53.7%; viability, T/C [27]: 46.1%; viability, T/C [28]: 43.5%; viability, T/C [29]: 29.9%; viability, T/C [30]: 23.3% |
